≈ marks a conversion by molar mass, not a printed value.
Assays:
[1] = Kinetic solubility assay (HPLC external standard); assay type: physicochemical; settings: PBS pH 7.4 with 2% DMSO, PBS pH 7.4, 2% DMSO, 37° C.
Method: This kinetic solubility assay assesses our compounds in pH 7.4 PBS, mimicking physiological conditions relevant to oral absorption and tumor targeting. Test solutions were prepared by mixing 10 μL of stock with 490 μL of PBS (pH 7.4, 2% DMSO), followed by shaking at 37° C. for 3 hours, centrifugation, and a 2× dilution with methanol. Solubility was quantified in μM using HPLC analysis on a C18 column at 35° C., with a 5-85% acetonitrile gradient and 20 μL injections, performed in duplicate.
The assay was conducted using a modified HPLC-based external standard method. For Solution Preparation, (1) Buffer: Phosphate-buffered saline (PBS) at pH 7.4; (2) Compound Stock Solutions: 10 mM concentration in DMSO; (3) Test Solutions: Mix 10 μL of the stock solution with 490 μL of PBS in a 2 mL EP tube (final 2% DMSO v/v), shake at 37° C. for 3 hours, centrifuge at 12,000 RPM for 5-10 minutes, take 100 μL of supernatant, add 100 μL methanol, mix well to use as the test solution. […] For Data Analysis, concentration calculations are based on peak area ratios, accounting for the 2× dilution factor.

[2] = tested on: mice; settings: doses as low as 10 mg/kg; cited from earlier work
[3] = tested on: rats; settings: doses as low as 10 mg/kg; cited from earlier work

`NCC[C@@H](Oc1cc(Cl)cc2[nH]cnc12)c1ccccc1` [GT-6041, (R)-3-((6-chloro-1H-benzo[d]imidazol-4-yl)oxy)-3-phenylpropan-1-amine] showed a solubility at 3 h [1] of 157 µM (≈ 47.3 µg/mL).
Work on `NCC[C@@H](Oc1cc(Cl)cc2[nH]ncc12)c1ccccc1` [GT-6045] yielded a solubility at 3 h [1] of 188 µM (≈ 56.9 µg/mL).
`CNCC[C@@H](Oc1cc(Cl)cc2[nH]cnc12)c1ccccc1` [GT-6058, (R)-3-((6-chloro-1H-benzo[d]imidazol-4-yl)oxy)—N-methyl-3-phenylpropan-1-amine] showed a solubility at 3 h [1] of 177 µM (≈ 55.8 µg/mL).
`CNCC[C@@H](Oc1cc(Cl)cc2[nH]ncc12)c1ccccc1` [GT-6059, (R)-3-((6-chloro-1H-indazol-4-yl)oxy)—N-methyl-3-phenylpropan-1-amine] showed a solubility at 3 h [1] of 169 µM (≈ 53.5 µg/mL).
Compound `OCCNCC[C@@H](Oc1cc(Cl)cc2[nH]cnc12)c1ccccc1` [GT-6060, (R)-2-((3-((6-chloro-1H-benzo[d]imidazol-4-yl)oxy)-3-phenylpropyl)amino) ethan-1-ol] has a solubility at 3 h [1] of 176 µM (≈ 60.8 µg/mL).
In the case of `N=C(N)SCCc1ccc(CCSC(=N)N)cc1` [PBIT, S,S′-1,4-phenylene-bis(1,2-ethanediyl)bis-isothiourea], the acute toxicity [2] is given as “acutely toxic” and the acute toxicity [3] is given as “acutely toxic”.
